This note sets out measurements from the NIST ThermoML archive (doi:10.1016/j.jct.2012.03.015).

± gives the expanded uncertainty stated by the source.

The nature of the first series: activity coefficient (dimensionless); of the first substance listed, at infinite dilution; xn = mol fraction of the nth substance listed. The settings on record: 318.15 K; 101 kPa; Liquid; Chromatography; x1 = 0.
For the compound `CCCC=O` [butanal] + COCC[N+]1(C)CCCC1.O=S(=O)([N-]S(=O)(=O)C(F)(F)F)C(F)(F)F, the activity coefficient is 0.808 ± 0.052.
For the compound `CCCCC` [pentane] + COCC[N+]1(C)CCCC1.O=S(=O)([N-]S(=O)(=O)C(F)(F)F)C(F)(F)F, the activity coefficient was 13.4 ± 0.9.
The same measure, in the same setting: next, `CC(C)CO` [2-methyl-1-propanol] + COCC[N+]1(C)CCCC1.O=S(=O)([N-]S(=O)(=O)C(F)(F)F)C(F)(F)F: 2.76 ± 0.19; `C1COCCO1` [1,4-dioxane] + COCC[N+]1(C)CCCC1.O=S(=O)([N-]S(=O)(=O)C(F)(F)F)C(F)(F)F: 0.66 ± 0.05.
Turning to `CCC(=O)OC` [methyl propanoate] + COCC[N+]1(C)CCCC1.O=S(=O)([N-]S(=O)(=O)C(F)(F)F)C(F)(F)F, the activity coefficient was 0.92 ± 0.06.
For `CCCCO` [butan-1-ol] + COCC[N+]1(C)CCCC1.O=S(=O)([N-]S(=O)(=O)C(F)(F)F)C(F)(F)F, the activity coefficient is 2.87 ± 0.2.
The same measure, in the same setting: the result for `CCC(C)(C)OC` [2-methoxy-2-methylbutane] + COCC[N+]1(C)CCCC1.O=S(=O)([N-]S(=O)(=O)C(F)(F)F)C(F)(F)F reads 4.08 ± 0.28.
Same read-out and setting: next, `CCCCCCCC` [octane] + COCC[N+]1(C)CCCC1.O=S(=O)([N-]S(=O)(=O)C(F)(F)F)C(F)(F)F: 40.5 ± 2.8; `CCO` [ethanol] + COCC[N+]1(C)CCCC1.O=S(=O)([N-]S(=O)(=O)C(F)(F)F)C(F)(F)F: 1.77 ± 0.12; `CCC(C)O` (configuration not stated) [butan-2-ol] + COCC[N+]1(C)CCCC1.O=S(=O)([N-]S(=O)(=O)C(F)(F)F)C(F)(F)F: 2.4 ± 0.2.
On to `CCc1ccccc1` [ethylbenzene] + COCC[N+]1(C)CCCC1.O=S(=O)([N-]S(=O)(=O)C(F)(F)F)C(F)(F)F, for which the activity coefficient stood at 2.23 ± 0.15.
As to `C1=CCCCC1` [cyclohexene] + COCC[N+]1(C)CCCC1.O=S(=O)([N-]S(=O)(=O)C(F)(F)F)C(F)(F)F, the activity coefficient was 6.04 ± 0.41.
Take `CC#N` [acetonitrile] + COCC[N+]1(C)CCCC1.O=S(=O)([N-]S(=O)(=O)C(F)(F)F)C(F)(F)F: the activity coefficient was 0.467 ± 0.036.
Regarding `C=CCCCCCCCC` [1-decene] + COCC[N+]1(C)CCCC1.O=S(=O)([N-]S(=O)(=O)C(F)(F)F)C(F)(F)F, the activity coefficient amounted to 41.7 ± 2.9.
As for `CCCOCCC` [dipropyl ether] + COCC[N+]1(C)CCCC1.O=S(=O)([N-]S(=O)(=O)C(F)(F)F)C(F)(F)F, the activity coefficient was determined as 7.22 ± 0.49.
In the case of `Cc1ccc(C)cc1` [1,4-dimethylbenzene] + COCC[N+]1(C)CCCC1.O=S(=O)([N-]S(=O)(=O)C(F)(F)F)C(F)(F)F, the activity coefficient came to 2.15 ± 0.15.
Same read-out and setting: the result for `C1CCOC1` [tetrahydrofuran] + COCC[N+]1(C)CCCC1.O=S(=O)([N-]S(=O)(=O)C(F)(F)F)C(F)(F)F reads 0.81 ± 0.05; that for `CCC[N+](=O)[O-]` [1-nitropropane] + COCC[N+]1(C)CCCC1.O=S(=O)([N-]S(=O)(=O)C(F)(F)F)C(F)(F)F, 0.74 ± 0.05; that for `C=C(C)c1ccccc1` [(1-methylethenyl)benzene] + COCC[N+]1(C)CCCC1.O=S(=O)([N-]S(=O)(=O)C(F)(F)F)C(F)(F)F, 1.87 ± 0.13.
The same measure, in the same setting: the result for `CCOC(C)=O` [ethyl acetate] + COCC[N+]1(C)CCCC1.O=S(=O)([N-]S(=O)(=O)C(F)(F)F)C(F)(F)F reads 0.95 ± 0.06.
Take `c1ccsc1` [thiophene] + COCC[N+]1(C)CCCC1.O=S(=O)([N-]S(=O)(=O)C(F)(F)F)C(F)(F)F: the activity coefficient is 0.885 ± 0.056.
Consider `C=CCCCCCC` [oct-1-ene] + COCC[N+]1(C)CCCC1.O=S(=O)([N-]S(=O)(=O)C(F)(F)F)C(F)(F)F, for which the activity coefficient came out at 20.8 ± 1.4.
On to `CCCCCCC` [heptane] + COCC[N+]1(C)CCCC1.O=S(=O)([N-]S(=O)(=O)C(F)(F)F)C(F)(F)F, for which the activity coefficient worked out at 28 ± 1.9.
For `C#CCCCCCC` [1-octyne] + COCC[N+]1(C)CCCC1.O=S(=O)([N-]S(=O)(=O)C(F)(F)F)C(F)(F)F, the activity coefficient was found to be 6.85 ± 0.47.
For the compound `C=CCCCCC` [1-heptene] + COCC[N+]1(C)CCCC1.O=S(=O)([N-]S(=O)(=O)C(F)(F)F)C(F)(F)F, the activity coefficient stood at 14.1 ± 1.

Still in this series, the particulars now being: 328.15 K; 101 kPa; Liquid; Chromatography; x1 = 0.
`CCCC=O` [butanal] + COCC[N+]1(C)CCCC1.O=S(=O)([N-]S(=O)(=O)C(F)(F)F)C(F)(F)F: the activity coefficient is 0.823 ± 0.053.
For `CCCCC` [pentane] + COCC[N+]1(C)CCCC1.O=S(=O)([N-]S(=O)(=O)C(F)(F)F)C(F)(F)F, the activity coefficient was determined as 12.7 ± 0.9.
As for `CC(C)CO` [2-methyl-1-propanol] + COCC[N+]1(C)CCCC1.O=S(=O)([N-]S(=O)(=O)C(F)(F)F)C(F)(F)F, the activity coefficient was 2.46 ± 0.17.
In the case of `C1COCCO1` [1,4-dioxane] + COCC[N+]1(C)CCCC1.O=S(=O)([N-]S(=O)(=O)C(F)(F)F)C(F)(F)F, the activity coefficient came out at 0.68 ± 0.05.
Still for that read-out and setting: the result for `CCC(=O)OC` [methyl propanoate] + COCC[N+]1(C)CCCC1.O=S(=O)([N-]S(=O)(=O)C(F)(F)F)C(F)(F)F reads 0.94 ± 0.06.
Take `CCCCO` [butan-1-ol] + COCC[N+]1(C)CCCC1.O=S(=O)([N-]S(=O)(=O)C(F)(F)F)C(F)(F)F: the activity coefficient was determined as 2.6 ± 0.2.
Take `CCC(C)(C)OC` [2-methoxy-2-methylbutane] + COCC[N+]1(C)CCCC1.O=S(=O)([N-]S(=O)(=O)C(F)(F)F)C(F)(F)F: the activity coefficient stood at 4.06 ± 0.28.
With `CCCCCCCC` [octane] + COCC[N+]1(C)CCCC1.O=S(=O)([N-]S(=O)(=O)C(F)(F)F)C(F)(F)F, the activity coefficient came to 36.9 ± 2.5.
For `CCO` [ethanol] + COCC[N+]1(C)CCCC1.O=S(=O)([N-]S(=O)(=O)C(F)(F)F)C(F)(F)F, the activity coefficient was 1.63 ± 0.11.
Consider `CCC(C)O` (configuration not stated) [butan-2-ol] + COCC[N+]1(C)CCCC1.O=S(=O)([N-]S(=O)(=O)C(F)(F)F)C(F)(F)F, for which the activity coefficient was 2.19 ± 0.15.
As for `CCc1ccccc1` [ethylbenzene] + COCC[N+]1(C)CCCC1.O=S(=O)([N-]S(=O)(=O)C(F)(F)F)C(F)(F)F, the activity coefficient was determined as 2.24 ± 0.15.
With `C1=CCCCC1` [cyclohexene] + COCC[N+]1(C)CCCC1.O=S(=O)([N-]S(=O)(=O)C(F)(F)F)C(F)(F)F, the activity coefficient was found to be 5.82 ± 0.4.
